Assay results published in patent US6930123B2, “sPLA2 inhibitors” (Eli Lilly and Company, priority 2000, dated 2005).

How the values were obtained:
[1] = target: T1, recombinant human secreted phospholipase A2 (Homo sapiens, UniProt P14555); test: chromogenic assay for inhibitors of recombinant human secreted phospholipase A2; assay type: biochemical; conditions: diheptanoyl thio-PC substrate, pH 7.5, 40° C. for 30 minutes, absorbance at 405 nanometers, titrated in triplicate
T1 sequence (P14555 21-144): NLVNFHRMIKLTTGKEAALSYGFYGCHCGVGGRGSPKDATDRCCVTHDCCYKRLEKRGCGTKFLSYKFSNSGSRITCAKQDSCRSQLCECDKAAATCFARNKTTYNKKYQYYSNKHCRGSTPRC
Source text: The following chromogenic assay procedure was used to identify and evaluate inhibitors of recombinant human secreted phospholipase A2. The assay described herein has been adapted for high volume screening using 96 well microtiter plates. A general description of this assay method is found in the article, “Analysis of Human Synovial Fluid Phospholipase A2 on Short Chain Phosphatidylcholine-Mixed Micelles: Development of a Spectrophotometric Assay Suitable for a Microtiterplate Reader”, by Laure J. Reynolds, Lori L. Hughes, and Edward A Dennis, Analytical Biochemistry, 204, pp. 190-197, 1992 (the disclosure of which is incorporated herein by reference):
A measured volume of racemic dipheptanoyl thio PC supplied in chloroform at a concentration of 100 mg/ml is taken to dryness and redissolved in 10 millimolar TRITON X-100™ nonionic detergent aqueous solution. Reaction Buffer is added to the solution, then DTNB to give the Reaction Mixture.
The reaction mixture thus obtained contains 1 mM diheptanoly thio-PC substrate, 0.29 mm Triton X-100™ detergent, and 0.12 mm DTMB in a buffered aqueous solution at pH 7.5.
• 1. Add 0.2 ml reaction mixture to all wells; • 2. Add 10 ul test compound (or solvent blank) to appropriate wells, mix 20 seconds; • 3. Add 50 nanograms of sPLA2 (10 microliters) to appropriate wells; • 4. Incubate plate at 40° C. for 30 minutes; • 5. Read absorbance of wells at 405 nanometers with an automatic plate reader.
Tests were done in triplicate. Typically, compounds were tested at a final concentration of 5 ug/ml. […] Lack of color development at 405 nanometers evidenced inhibition. Compounds initially found to be active were re-assayed to confirm their activity and, if sufficiently active, IC50 values were determined. […] In all cases, % inhibition measured at 405 nanometers generated by enzyme reactions containing inhibitors relative to the uninhibited control reactions was determined. […] IC50 values were determined by plotting log concentration versus inhibition values in the range from 10-90% inhibition.

IC50 [1] | melting point | Compound
14.3 µM | – | CCc1c(C(=O)C(N)=O)c2c(OCC(=O)OCc3ccccc3)c3ccccc3cc2n1Cc1ccccc1 [Example 2, 2-[[3-(2-amino-1,2-dioxoethyl)-1-benzyl-2-ethyl-1H-benz[f]indol-4-yl]oxy]acetic acid benzyl ester]
1.3 µM | – | CCOC(=O)COc1c2ccccc2cc2c1c(C(=O)C(N)=O)c(CC)n2Cc1ccccc1 [Example 1, 2-[[3-(2-amino-1,2-dioxoethyl)-1-benzyl-2-ethyl-1H-benz[f]indol-4-yl]oxy]acetic acid ethyl ester]
1.06 µM | 243 to 253 °C (dec.) | CCc1c(C(=O)C(N)=O)c2c(OCC(=O)O)c3ccccc3cc2n1Cc1ccccc1 [Example 3, 2-[[3-(2-amino-1,2-dioxoethyl)-1-benzyl-2-ethyl-1H-benz[f]indol-4-yl]oxy]acetic acid]
